Experimental data from patent US11766470B2, “Manufacture, formulation and dosing of apraglutide” (VectivBio AG, priority 2020, dated 2023).
Like-named read-outs stand apart in the source and are kept apart here. Square brackets hold non-standard residues; d marks the D form. Peptide text beside a SMILES is read from it. ξ: configuration not given here. Ile(3ξ) = CCC(C)[C@H](N)C(=O)O; Thr(3ξ) = CC(O)[C@H](N)C(=O)O; Nle = CCCC[C@H](N)C(=O)O

How the values were obtained:
[1] = Phase I trial, single subcutaneous 5 mg dose in subjects with severe renal impairment vs normal renal function (Example 10), pharmacokinetics; format: in vivo, human; conditions: for Geometric mean ratio for AUCinf, severe renal impairment vs normal renal function / Geometric mean ratio for Cmax, severe renal impairment vs normal renal function: single SC 5 mg; for Geometric Mean Ratio of AUCinf / Geometric Mean Ratio of Cmax: single subcutaneous dose 5 mg apraglutide, severe renal impairment (Cohort 1) vs normal renal function (Cohort 2)
Method: (§1) The following non-limiting example describes a Phase I clinical trial in which subjects with normal and impaired kidney function are treated with the apraglutide formulations of the present disclosure. This Phase I clinical trial investigates the pharmacokinetics and safety of a single subcutaneous dose of 5 mg apraglutide in subjects with varying degrees of renal function. The renal function is calculated by the estimated glomerular filtration rate (eGFR) according to the Chronic Kidney Disease Epidemiology (CKD-EPI) Creatinine Equation.
(§2) The trial is a two-stage, open label, multi-center, non-randomized, Phase I trial. In Part 1 of the trial, 8 subjects with severe renal impairment (Cohort 1) and 6 subjects with normal renal function (Cohort 2) will be administered a single dose 5 mg apraglutide of the present disclosure. In Part 2 of the trial, 8 subjects with moderate renal impairment (Cohort 3) and 8 subjects with mild renal impairment (Cohort 4) will be administered a single dose 5 mg apraglutide of the present disclosure. Subjects will be enrolled if the geometric mean ratio (GMR) of AUCinf or AUClast for the severe renal impairment group compared to the control group is ≥2.
Patient eligibility is assessed during a screening visit. The main inclusion criteria are: • 1. All Participants • a. Age between 18 and 75 years inclusive • b. Subjects who are willing and able to comply with the study procedures • c. Subjects able to understand and willing to sign the informed consent • d. Body mass index (BMI) of ≥17.5 to ≤40 kg/m2; and a total body weight of >50 kg (110 lb). • e. […] Sterilized or infertile or postmenopausal females. • f. […] Healthy participants • a. No clinically relevant abnormalities (medical history, vital signs, ECG, safety labs) • b. eGFR measured by CKD-EPI≥90 mL/min/1.73 m2 at two screening visits • c. […] Participants with impaired renal function • a. Severe renal impairment: eGFR<30 mL/min/1.73 m2, but not requiring hemodialysis • b. Moderate renal impairment: eGFR≥30 mL/min/1.73 m2 and <60 mL/min/1.73 m2 • c. Mild renal impairment: eGFR≥60 and <90 mL/min/1.73 m2
Primary endpoint efficacy assessments will be performed at 240 hours after single dose. […] Secondary endpoint efficacy assessments will be performed at 240 hours, 7 days, 14 days, and 28 days. Primary and secondary endpoints will be evaluated across all subjects.
The secondary endpoints to be evaluated, include, but are not limited to: • 1. Area under the concentration-time curve up to the last measurable concentration from time 0 to 7 days (AUC0-7days). Samples collected over 168 hours after single dose • 2. Time to maximum concentration (Tmax). Samples collected over 240 hours after single dose • 3. Terminal elimination rate constant. Samples collected over 240 hours after single dose • 4. Terminal elimination half-life. Samples collected over 240 hours after single dose • 5. Apparent clearance after extravascular administration (CL/F). Samples collected over 240 hours after single dose • 6. Apparent volume of distribution after extravascular administration (Vz/F). Samples collected over 240 hours after single dose • 7. Number of participants with adverse events or adverse events of special interest at days 14-28 • 8. Clinically significant change from baseline in vital signs at days 14-28 • 9. Clinically significant change from baseline in recorded triplicate 12-lead ECG at days 14-28 • 10. Number of participants who experience a clinically significant change from baseline in clinical laboratory assessments at days 14-28
The plasma concentration of apraglutide after administration of a single subcutaneous dose of 5 mg apraglutide was monitored over a period of 240 hours in both healthy subjects (Cohort 2) and subjects with severe CKD (Cohort 1) and is presented in FIG. 29.
Two outliers were identified (one in each Cohort) when analyzing the individual apraglutide plasma concentration curves. […]

[2] = Plasma concentration of apraglutide (LC-MS/MS) in Phase 2 SBS-IF trial (Example 5); format: in vivo; conditions: human; for level at 168 h: sc, read-out: Mean plasma concentration before the second dose (Ctrough)
Text: Blood samples for analysis of plasma concentration of apraglutide and fasting plasma L-citrulline, a marker of enterocyte mass, were collected at baseline, during first and second treatment injection, four days after first treatment injection and at the end of treatment.
Apraglutide and L-citrulline were quantified using a validated LC-MS-based method. For apraglutide, the analytical method used solid-phase extraction purification of the intact apraglutide molecule and its internal standard. The compounds were identified and quantified using reversed-phase HPLC with MS/MS detection using an AB Sciex API 5000 quadrupole mass spectrometer. For samples below the limit of quantification of 5.00 ng/mL, compounds were identified and quantified using reversed-phase UHPLC with MS/MS detection using an AB Sciex API 5500 quadrupole mass spectrometer. For L-citrulline, the analytical method used protein precipitation extraction of L-Citrulline and its internal standard. The compounds were identified and quantified using Hilic HPLC with MS/MS detection using an AB Sciex API 5000 quadrupole mass spectrometer.

[3] = system: patients with SBS-IF or SBS-II; experiment: Safety assessments (adverse events) in Phase 2 metabolic balance trial (Example 6)
Method: Patients were treated with once weekly 5 mg apraglutide for four weeks. Apraglutide was provided as a freeze-dried powder for reconstitution in sterile water prior to injection, and treatments were administered as subcutaneous injections in the abdominal area. A 72-hour metabolic balance study was performed at baseline and at the end of the treatment period (starting one day after the fourth and last apraglutide injection). Each 72-hour metabolic balance study was performed during a five-day hospital admission. On the day of admission, patients were instructed to create a 24-hour drinking menu based on their habitual oral fluid intake. The drinking menu was to be followed during each balance study. On the second day of admission, just after the patients had urinated and emptied their stoma bags or defecated, the balance study was initiated. […] Daily PS and compliance to the predefined drinking menu was documented during admissions.
First, second and fourth apraglutide injections were performed at the hospital. Safety assessments included observation for injection site reactions, vital signs, blood samples, electrocardiogram (ECG), urinalysis and body weight. They were performed at baseline, during each injection of the trial drug, four days after first injection, at the end of treatment and 4-6 weeks after last dosing at the end of the trial, as shown in Table 20. Liver enzymes were measured prior to each drug administration.

[4] = system: subjects with severe renal impairment; experiment: Safety in Phase I renal impairment trial (Example 10); format: in vivo, human; conditions: 5 mg single SC dose
Method: as §1, §2
The secondary endpoints to be evaluated, include, but are not limited to: • 1. […] Clinically significant change from baseline in recorded triplicate 12-lead ECG at days 14-28 • 10. […]

[5] = human, in vivo
Method: 23 healthy adult volunteers received 6 weekly subcutaneous doses of apraglutide (1, 5, or 10 mg) or placebo and were followed for a further 6 weeks after the last dose. Blood collections were controlled for diet, lifestyle, and diurnal effects. […] PK data underwent non-compartmental analysis and PD data were analyzed by ANCOVA.
As with citrulline, a statistical steady-state analysis per dose level was performed for apraglutide using Helmert's approach.

[6] = cohort without the two outliers

CCCC[C@H](NC(=O)[C@H](CCC(=O)O)NC(=O)[C@H](CC(=O)O)NC(=O)[C@H](CO)NC(=O)[C@H](Cc1ccccc1)NC(=O)[C@H](CO)NC(=O)CNC(=O)[C@H](CC(=O)O)NC(=O)CNC(=O)[C@@H](N)Cc1c[nH]cn1)C(=O)N[C@H](Cc1ccccc1)C(=O)N[C@H](C(=O)N[C@H](C(=O)N[C@@H](CC(C)C)C(=O)N[C@@H](CC(=O)O)C(=O)N[C@@H](CC(C)C)C(=O)N[C@@H](CC(C)C)C(=O)N[C@@H](C)C(=O)N[C@@H](C)C(=O)N[C@@H](CCCNC(=N)N)C(=O)N[C@@H](CC(=O)O)C(=O)N[C@@H](Cc1ccccc1)C(=O)N[C@H](C(=O)N[C@@H](CC(N)=O)C(=O)N[C@@H](Cc1c[nH]c2ccccc12)C(=O)N[C@@H](CC(C)C)C(=O)N[C@H](C(=O)N[C@@H](CCC(N)=O)C(=O)N[C@H](C(=O)N[C@@H](CCCCN)C(=O)N[C@H](C(=O)N[C@H](C(=O)N[C@@H](CC(=O)O)C(N)=O)C(C)O)C(C)CC)C(C)O)C(C)CC)C(C)CC)C(C)CC)C(C)O (stereo partly drawn) [apraglutide, L-histidyl-glycyl-L-aspartyl-glycyl-L-seryl-L-phenylalanyl-L-seryl-L-aspartyl-L-glutamyl-L-norleucyl-D-phenylalanyl-L-threonyl-Lisoleucyl-L-leucyl-L-aspartyl-L-leucyl-L-leucyl-L-alanyl-L-alanyl-L-arginyl-L-aspartyl-L-phenylalanyl-L-isoleucyl-L-asparaginyl-Ltryptophanyl-L-leucyl-L-isoleucyl-L-glutaminyl-L-threonyl-L-lysyl-L-isoleucyl-L-threonyl-Laspartic acid amide] (H-HGDGSFSDE[Nle][dF][Thr(3ξ)][Ile(3ξ)]LDLLAARDF[Ile(3ξ)]NWL[Ile(3ξ)]Q[Thr(3ξ)]K[Ile(3ξ)][Thr(3ξ)]D-NH2)
Geometric mean ratio for AUCinf, severe renal impairment vs normal renal function ([1]; entire subject population): 0.614
Geometric mean ratio for Cmax, severe renal impairment vs normal renal function ([1]; entire subject population): 0.572
Geometric mean ratio for AUCinf, severe renal impairment vs normal renal function ([1]; outlier subjects removed): 0.849
Geometric mean ratio for Cmax, severe renal impairment vs normal renal function ([1]; outlier subjects removed): 0.774
Geometric Mean Ratio of AUCinf [1, 6]: 0.849
Geometric Mean Ratio of Cmax [1, 6]: 0.774
Geometric Mean Ratio of AUCinf ([1]; whole cohort): 0.614
Geometric Mean Ratio of Cmax ([1]; whole cohort): 0.572
Tmax ([2]; SBS-IF patients, SC, read-out: Time of maximum mean plasma concentration after dosing): 72 h
level at 168 h ([2]; 5 mg treatment period): 4.5 ng/mL
level at 168 h ([2]; 10 mg treatment period): 8.9 ng/mL
Injection site reactions (transient), number of patients ([3]; 5 mg): One
Patients with serious adverse events ([3]; 5 mg): two
Serious adverse events assessed as related to the trial drug (abdominal pain) ([3]; 5 mg): One
Serious adverse events, number ([3]; 5 mg): three
Safety and tolerability in words ([3]; 5 mg once weekly, four weeks, SBS-II and SBS-IF): safe and well tolerated
Abdominal pain, number of patients ([3]; SBS-IF (N = 4), 5 mg): 2
Any adverse event, number of patients ([3]; SBS-IF (N = 4), 5 mg): 4
Flatulence, number of patients ([3]; SBS-IF (N = 4), 5 mg): 1
Fluid retention, number of patients ([3]; SBS-IF (N = 4), 5 mg): 1
Gastrointestinal stoma complication, number of patients ([3]; SBS-IF (N = 4), 5 mg): 2
Gastrointestinal stoma output abnormal, number of patients ([3]; SBS-IF (N = 4), 5 mg): 1
Gastrointestinal stoma output decreased, number of patients ([3]; SBS-IF (N = 4), 5 mg): 3
Nausea, number of patients ([3]; SBS-IF (N = 4), 5 mg): 4
Polyuria, number of patients ([3]; SBS-IF (N = 4), 5 mg): 1
Stoma complication, number of patients ([3]; SBS-IF (N = 4), 5 mg): 3
Weight increased, number of patients ([3]; SBS-IF (N = 4), 5 mg): 0
Abdominal pain, number of patients ([3]; SBS-II (N = 4), 5 mg): 1
Any adverse event, number of patients ([3]; SBS-II (N = 4), 5 mg): 4
Flatulence, number of patients ([3]; SBS-II (N = 4), 5 mg): 3
Fluid retention, number of patients ([3]; SBS-II (N = 4), 5 mg): 1
Gastrointestinal stoma complication, number of patients ([3]; SBS-II (N = 4), 5 mg): 3
Gastrointestinal stoma output abnormal, number of patients ([3]; SBS-II (N = 4), 5 mg): 3
Gastrointestinal stoma output decreased, number of patients ([3]; SBS-II (N = 4), 5 mg): 3
Nausea, number of patients ([3]; SBS-II (N = 4), 5 mg): 1
Polyuria, number of patients ([3]; SBS-II (N = 4), 5 mg): 2
Stoma complication, number of patients ([3]; SBS-II (N = 4), 5 mg): 3
Weight increased, number of patients ([3]; SBS-II (N = 4), 5 mg): 2
Abdominal pain, number of patients ([3]; Total (N = 8), 5 mg): 3
Any adverse event, number of patients ([3]; Total (N = 8), 5 mg): 8
Flatulence, number of patients ([3]; Total (N = 8), 5 mg): 4
Fluid retention, number of patients ([3]; Total (N = 8), 5 mg): 2
Gastrointestinal stoma complication, number of patients ([3]; Total (N = 8), 5 mg): 5
Gastrointestinal stoma output abnormal, number of patients ([3]; Total (N = 8), 5 mg): 4
Gastrointestinal stoma output decreased, number of patients ([3]; Total (N = 8), 5 mg): 6
Nausea, number of patients ([3]; Total (N = 8), 5 mg): 5
Polyuria, number of patients ([3]; Total (N = 8), 5 mg): 3
Stoma complication, number of patients ([3]; Total (N = 8), 5 mg): 6
Weight increased, number of patients ([3]; Total (N = 8), 5 mg): 2
Safety in patients with severe CKD, in words [4]: safe to dose the patients with severe CKD with apraglutide 5 mg, without the risk of overdose
Quantifiable concentration in the last pharmacokinetic sample (2 weeks after last dose) [5]: up to 4.46 ng/mL
CL/F, arithmetic mean ± SD ([5]; 5 mg): 16.480 L/day
CL/F, arithmetic mean ± SD ([5]; 10 mg): 20.747 L/day
